Laboratory results reported in ChEMBL document CHEMBL3244049, “Synthesis and antibacterial activity of 1-hydroxy-1-methyl-1,3-dihydrofuro[3,4-b]quinoxaline 4,9-dioxide and related compounds” (1979).
Converted amounts (≈) assume the structure as drawn.

Assays:
Assay type in all cases: functional
Salmonella enterica [1] = assay: Antibacterial activity against Salmonella choleraesuis infected in mouse assessed as protection from infection at 25 mg/kg, po administered 0.5 hrs, 4 and 24 hrs post inoculation
Salmonella enterica [2] = assay: Antibacterial activity against Salmonella choleraesuis infected in mouse assessed as protection from infection at 25 mg/kg, sc administered 0.5 hrs, 4 and 24 hrs post inoculation; conditions: route subcutaneous
Escherichia coli [3] = assay: Antibacterial activity against Escherichia coli infected in sc dosed mouse assessed as protection from infection compound administered 0.5 hrs, 4 and 24 hrs post inoculation; conditions: read-out: PD50
Pasteurella multocida [4] = assay: Antibacterial activity against Pasteurella multocida
Salmonella enterica [5] = assay: Antibacterial activity against Salmonella choleraesuis infected in po dosed mouse assessed as protection from infection compound administered 0.5 hrs, 4 and 24 hrs post inoculation; conditions: read-out: PD50
[6] = system: Brachyspira hyodysenteriae; assay: Antibacterial activity against Treponema hyodysenteriae after 72 hrs by dilution method
Streptococcus pyogenes = assay: Antibacterial activity against Streptococcus pyogenes
Salmonella enterica [7] = assay: Antibacterial activity against Salmonella choleraesuis
Pasteurella multocida [8] = assay: Antibacterial activity against Pasteurella multocida infected in po dosed mouse assessed as protection from infection compound administered 0.5 hrs, 4 and 24 hrs post inoculation; conditions: read-out: PD50
Escherichia coli [9] = assay: Antibacterial activity against Escherichia coli
Escherichia coli [10] = assay: Antibacterial activity against Escherichia coli infected in po dosed mouse assessed as protection from infection compound administered 0.5 hrs, 4 and 24 hrs post inoculation; conditions: read-out: PD50
Pasteurella multocida [11] = assay: Antibacterial activity against Pasteurella multocida infected in sc dosed mouse assessed as protection from infection compound administered 0.5 hrs, 4 and 24 hrs post inoculation; conditions: read-out: PD50
Salmonella enterica [12] = assay: Antibacterial activity against Salmonella choleraesuis infected in sc dosed mouse assessed as protection from infection compound administered 0.5 hrs, 4 and 24 hrs post inoculation; conditions: read-out: PD50

Structure (SMILES)	Activity (Salmonella enterica [1]) [%]	Activity (Salmonella enterica [2]) [%]	ED50 (Escherichia coli [3]) [mg/kg]	MIC (Pasteurella multocida [4]) [µg/mL]	ED50 (Salmonella enterica [5]) [mg/kg]	MIC [6] [µg/mL]	MIC (Streptococcus pyogenes) [µg/mL]	MIC (Salmonella enterica [7]) [µg/mL]	ED50 (Pasteurella multocida [8]) [mg/kg]	MIC (Escherichia coli [9]) [µg/mL]	ED50 (Escherichia coli [10]) [mg/kg]	ED50 (Pasteurella multocida [11]) [mg/kg]	ED50 (Salmonella enterica [12]) [mg/kg]
COC1(C)OCc2c1[n+]([O-])c1ccccc1[n+]2[O-] (configuration not stated)	70	70											
COC(=O)N/N=C/c1c[n+]([O-])c2ccccc2[n+]1[O-] [CARBADOX]	80	40	7	0.78 (≈ 2.97 µM)	20	0.09 (≈ 0.343 µM)	0.19 (≈ 0.725 µM)	0.19 (≈ 0.725 µM)	16	0.39 (≈ 1.49 µM)	8.2	18	44
CCOC1(C)OCc2c1[n+]([O-])c1ccccc1[n+]2[O-] (configuration not stated)	70	50											
CC1(OCc2ccccc2)OCc2c1[n+]([O-])c1ccccc1[n+]2[O-] (configuration not stated)	40	60											
CC1(O)OCc2c1[n+]([O-])c1ccccc1[n+]2[O-] (configuration not stated)	100	100	13		6				11		14	8.1	4.4
